Patent US12570612B2, “Substituted nitrogen heterocyclic compound and anesthetic effect thereof” (priority 2019, dated 2026)
Entries after “also recorded” stand apart in the source; their conditions may differ. Read-outs that look alike come from different tables or passages of the source. Marks after values point to notes of the source that are not given here.

Assays:
Sprague-Dawley rats [1] = experiment: animal or person
Procedure: (§1) Adult male Sprague-Dawley rats (250-300 g) were selected for the experiment. […] The anesthesia effects of the compounds were assessed in rats using a LORR assay and a period >30 s was considered as an indicator of general anesthesia.

Sprague-Dawley rats [2] = experiment: Pharmacological characteristics at equivalent doses (2ED50), Group A compounds; type: in vivo; details: 2ED50, tail vein
H295R cell line [3] = experiment: Adrenocortical function in vitro test: secretion of cortisol and corticosterone, Group A compounds; type: cell-based; details: H295 cells; for EC50: 0.1-10000 nM, HPLC-MS/MS
Sprague-Dawley rats [4] = system: Sprague-Dawley rats
Procedure: Adult male Sprague-Dawley rats with body weight ranging from 250 to 300 gm were selected for continuous infusion test. […] Time to recovery of righting reflex from stopping infusion, and time to fully awake from stopping infusion were recorded.

Sprague-Dawley rats [5] = experiment: animal or person; remark: listed apart in the source
Procedure: as §1

H295R cell line [6] = experiment: Adrenocortical function in vitro test: secretion of cortisol and corticosterone, Group B compounds; type: cell-based; details: H295R cells; for EC50: 0.1-10000 nM, HPLC-MS/MS
[7] = system: circulatory function of rats; details: rat, in vivo
Procedure: First, animal models were established. […] At least one week after surgery, data were recorded.
Finally, the pharmacological effects, adverse reactions, and behavioral manifestations of the rats were observed and recorded
After data acquisition, the test was stopped.

Sprague-Dawley rats [8] = experiment: Continuous infusion at 2 times the MIR for 1 hour, Group B compounds; type: in vivo
Sprague-Dawley rats [9] = experiment: animal or person; type: in vivo; details: rats
Excerpt: Evaluating indicator: The end point of anesthesia: LORR was used as the end point of anesthesia; General anesthesia effect: the disappearance of forepaw righting reflex in rats lasting for 30 seconds is taken as the index of general anesthesia effect; Anesthesia recovery index: the recovery of rat forepaw righting reflex was used as the index of anesthesia recovery.

Sprague-Dawley rats [10] = experiment: Pharmacological effect and adverse reactions under the equivalent dose (2ED50), Group C compounds; type: in vivo
Excerpt: (§2) Evaluation index: onset time: from the completion of drug injection to the disappearance of forepaw righting reflex in rats; Duration of anesthesia: the time from the disappearance of rat forepaw righting reflex to the recovery of rat forepaw righting reflex; Recovery time of anesthesia: the time from the […] to complete recovery;

SD rats [11] = system: SD rats
Procedure: Experimental Methods: Adult male SD rats with body weight ranging from 250 g to 350 g were selected for continuous infusion test.
Evaluation indexes: the time from the beginning of continuous infusion to the […] of sedation in rats; the time from the cessation of infusion to the restoration of the forepaw turning reflex after 1 hour of continuous infusion; the time from the cessation of infusion to the complete restoration of rats after 1 hour of continuous infusion.

Sprague-Dawley rats [12] = experiment: animal or person; type: in vivo; details: rats; remark: listed apart in the source
Excerpt: Evaluating indicator: The end point of anesthesia: the disappearance of forepaw righting reflex (lorr) was used as the end point of anesthesia; General anesthesia effect: the disappearance of forepaw righting reflex in rats lasting for 30 seconds is taken as the index of general anesthesia effect; Anesthesia recovery index: the recovery of rat forepaw righting reflex was used as the index of anesthesia recovery.

Sprague-Dawley rats [13] = experiment: Pharmacological effect and adverse reactions under the equivalent dose (2ED50), Group D compounds; type: in vivo
Excerpt: as §2

SD rats [14] = system: SD rats; remark: listed apart in the source
In short: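 Adult male SD rats (250–350 g) received continuous infusion. Read-outs: time from infusion start to […]; after 1 h infusion, time from stop to return of forepaw turning reflex and to full recovery.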

Sprague-Dawley rats [15] = type: in vivo; details: tail vein
Sprague-Dawley rats [16] = type: in vivo; details: tail vein; remark: listed apart in the source
[17] = LORR in rats, tail vein, brackets = 95% confidence limit
[18] = read-out: EC50 (Corticosterone)
[19] = continuous infusion 2 x MIR 1 hour, rats affected/rats
[20] = LORR, up and down method, tail vein, brackets = 95% confidence limit
[21] = 2ED50, tail vein, rats, n=8, unit s
[22] = equivalent dose (2ED50), number of rats of n = 8
[23] = after 1 hour continuous infusion at 2 times the MIR, SD rats
[24] = continuous tail vein infusion at 2 times the MIR, SD rats
[25] = equivalent dose (2 × ED50), number of rats of n = 8

With `COC(=O)C1(OC(=O)c2cncn2[C@H](C)c2ccccc2)CC1` [CPMM, cyclopropyl methoxycarbonyl metamidate, reference compound] the ED50 (Sprague-Dawley rats [1]; [17]) was 0.78(0.74-0.82)* mg/kg, the Approximate therapeutic index (Sprague-Dawley rats [1]; rats) was over 10 and the Minimal lethal dose (Sprague-Dawley rats [1]; rats) was over 7.8 mg/kg. For the same compound, the Onset time (Sprague-Dawley rats [2]) was 0.26 ± 0.08 min, the Righting reflex duration (Sprague-Dawley rats [2]) was 1.62 ± 0.63 min and the “Corticosterone as an indicator to determine the presence of inhibition” value (H295R cell line [3]) was 1 (Mild inhibition (using CPMM as a control)). For the same compound, the “Cortisol as an indicator to determine the presence of inhibition” value (H295R cell line [3]) was 1 (Mild inhibition (using CPMM as a control)), the EC50 (H295R cell line [3]; [18]) was over 100 nM and the EC50 (H295R cell line [3]; read-out: EC50 (Cortisol)) was over 10 nM. The “Recovery time after stopping infusion” value (Sprague-Dawley rats [4]; LORR maintained for 1 hour, 2 times the MIR) was 7 to 8 min, the Onset time (Sprague-Dawley rats [4]; continuous infusion, 2 times the MIR) was 3 to 4 min and the “Types and incidence of adverse reactions” value (Sprague-Dawley rats [4]; continuous infusion, (animals affected/animals)) was “Convulsions(3/6),; also recorded: Tremor(5/6),; also recorded: Myoclonus(5/6),”. For the same compound, the ED50 (Sprague-Dawley rats [5]; [17]) was 0.78(0.74-0.82)* mg/kg, the Approximate therapeutic index (Sprague-Dawley rats [5]; rats) was over 10 and the Minimal lethal dose (Sprague-Dawley rats [5]; rats) was over 7.8 mg/kg. The “Corticosterone as an indicator to determine the presence of inhibition” value (H295R cell line [6]) was 1 (Mild inhibition (using CPMM as a control)), the “Cortisol as an indicator to determine the presence of inhibition” value (H295R cell line [6]) was 1 (Mild inhibition (using CPMM as a control)) and the EC50 (H295R cell line [6]; [18]) was over 100 nM. The EC50 (H295R cell line [6]; read-out: EC50 (Cortisol)) was over 10 nM, the “inhibitory effect on the circulatory function (MAP, HR)” value [7] was “almost no inhibitory effect on the circulatory function” and the “Recovery time after stopping infusion” value (Sprague-Dawley rats [8]; after 1 hour continuous infusion at 2 times the MIR, rats) was 7 to 8 min. The “Types and incidence of adverse reactions: Convulsions” value (Sprague-Dawley rats [8]; [19]) was “Convulsions (3/6), Tremor”, the “Types and incidence of adverse reactions: Myoclonus” value (Sprague-Dawley rats [8]; [19]) was “(5/6), Myoclonus (5/6)” and the “Types and incidence of adverse reactions: Tremor” value (shortened to “Types and incidence … Tremor”) (Sprague-Dawley rats [8]; [19]) was “(5/6), Myoclonus (5/6)”. The Onset time (Sprague-Dawley rats [8]; continuous tail vein infusion at 2 times the MIR, emulsion, rats) was 3 to 4 min, the ED50 (Sprague-Dawley rats [9]; [20]) was 0.49(0.45-0.53)* mg/kg and the Approximate therapeutic index (Sprague-Dawley rats [9]) was 42.0. The Righting reflex duration (Sprague-Dawley rats [10]; 2ED50, tail vein, rats, n=8) was 2.71 ± 0.97 min, the Sedation duration (Sprague-Dawley rats [10]; 2ED50, tail vein, rats, n=8) was 8.48 ± 2.58 min and the Onset time (Sprague-Dawley rats [10]; [21]) was under 30 s. For the same compound, the “Adverse reaction: Convulsions” value (Sprague-Dawley rats [10]; [22]) was 0, the “Adverse reaction: Cough, broken-winded” value (Sprague-Dawley rats [10]; [22]) was 0 and the “Adverse reaction: Euphoria” value (Sprague-Dawley rats [10]; [22]) was 0. For the same compound, the “Adverse reaction: Red urine” value (Sprague-Dawley rats [10]; [22]) was 8, the “Adverse reaction: Slower breathing, Tetany convulsion” value (Sprague-Dawley rats [10]; [22]) was 3 and the “Adverse reaction: Systemic stiffness, Convulsions, Opisthotonus” value (Sprague-Dawley rats [10]; [22]) was 0. For the same compound, the “Adverse reaction: Tongue stretching” value (Sprague-Dawley rats [10]; [22]) was 4, the “Adverse reaction: Tremor” value (Sprague-Dawley rats [10]; [22]) was 5 and the “Adverse reaction: the four limbs rigidity” value (Sprague-Dawley rats [10]; [22]) was 4. For the same compound, the “After the infusion is stopped: Righting reflex recovery time” value (SD rats [11]; [23]) was 8 to 10 min, the “Recovery time after stopping infusion” value (SD rats [11]; [23]) was 10 to 15 min and the “Types and incidence of adverse reactions: Hindlimb rigidity” value (SD rats [11]; [19]) was “Hindlimb rigidity(4/6)”. For the same compound, the “Types and incidence of adverse reactions: Red urine” value (SD rats [11]; [19]) was 6/6, the “Types and incidence … Tremor” value (SD rats [11]; [19]) was 4/6 and the Sedation onset time (SD rats [11]; [24]) was under 5 min. For the same compound, the ED50 (Sprague-Dawley rats [12]; [20]) was 0.49(0.45-0.53)* mg/kg, the Approximate therapeutic index (Sprague-Dawley rats [12]) was 42.0 and the Righting reflex duration (Sprague-Dawley rats [13]; 2ED50, tail vein, rats, n=8) was 2.71 ± 0.97 min. The Sedation duration (Sprague-Dawley rats [13]; 2ED50, tail vein, rats, n=8) was 8.48 ± 2.58 min, the Onset time (Sprague-Dawley rats [13]; [21]) was under 30 s and the “Adverse reaction: Convulsions” value (Sprague-Dawley rats [13]; [25]) was 0. The “Adverse reaction: Cough, broken-winded” value (Sprague-Dawley rats [13]; [25]) was 0, the “Adverse reaction: Euphoria” value (Sprague-Dawley rats [13]; [25]) was 0 and the “Adverse reaction: Four limbs rigidity” value (Sprague-Dawley rats [13]; [25]) was 2. For the same compound, the “Adverse reaction: Slower breathing, Tetany convulsion” value (Sprague-Dawley rats [13]; [25]) was 0, the “Adverse reaction: Systemic stiffness, Convulsions, Opisthotonus” value (Sprague-Dawley rats [13]; [25]) was 0 and the “Adverse reaction: Tongue stretching” value (Sprague-Dawley rats [13]; [25]) was 4. For the same compound, the “Adverse reaction: Tremor” value (Sprague-Dawley rats [13]; [25]) was 2, the “After the infusion is stopped: Righting reflex recovery time” value (SD rats [14]; [23]) was 8 to 10 min and the “Recovery time after stopping infusion” value (SD rats [14]; [23]) was 10 to 15 min. For the same compound, the “Types and incidence of adverse reactions: Hindlimb rigidity” value (SD rats [14]; [19]) was “Hindlimb rigidity(4/6)”, the “Types and incidence of adverse reactions: Red urine” value (SD rats [14]; [19]) was 6/6 and the “Types and incidence … Tremor” value (SD rats [14]; [19]) was 4/6. It also gave a Sedation onset time (SD rats [14]; [24]) of under 5 min, a Minimal lethal dose (Sprague-Dawley rats [15]) of 20.6 mg/kg and a Minimal lethal dose (Sprague-Dawley rats [16]) of 20.6 mg/kg.
